Assay results as given in US10800776B2, “Fluorine-containing triazolopyridine, and manufacturing method, pharmaceutical composition, and application thereof” (SHANGHAI INSTITUTE OF MATERIA MEDICA, CHINESE ACADEMY OF …, priority 2016, dated 2020).

Assays:
ICR mice = test: Mouse swimming depression test; type: in vivo
Procedure: Experiment objectives: to observe the effect of the test compound on the depressive status of mice
Experimental animals: ICR mice, 20-28 g, both male and female
Experimental equipment: plexiglass tube: cylindrical, 25 cm high, 15 cm inner diameter
Sample treatment: The test compounds were ground with 1% CMC (sodium carboxymethyl cellulose) to prepare a homogeneous solution. In vivo dose was 5 mg/kg, 10 mg/kg and 20 mg/kg, the compound was orally administrated at 0.1 ml/10 g volume/body weight. Positive control drugs (amitriptyline and fluoxetine) were dissolved with 0.9% saline, in vivo dose was 10 mg/kg, intraperitoneal injected at 0.1 ml/10 g volume/body weight. (Note: mice were given the compound after fasted for 8 hours without water-fasted.)
Experimental principle: The mouse is placed in a limited space which can not escape to swim, thus inducing animals to non-movement state which reflects the animal's desperate behavior.
Experimental Methods: mice were grouped randomly, 15 minutes swimming depression was modeled at the first day, and equivalent mice were selected. The second day of the test, 1 hour after the animals were orally administered the compound (0.5 hours after intraperitoneal injection) and then the animals were put in water to record the non-movement time in the later 4 min of 6 min.

mGluR2 = mGluR2 (Homo sapiens (Human), UniProt Q14416); test: In vitro activity test for mGluR2 (HDB Fluo-8 calcium fluorescence, HEK/mGluR2 cell line); type: cell-based
Text: Experimental materials: HEK/mGluR2 cell line (human […] transfected HEK cell line), DMEM (FBS) medium, positive control LY487379 (purchased from sigma; CAS: to 352317-17-1)
Experimental instrument: FLIPR Tetra real-time fluorescence imaging analysis system
Experimental method: HDB Fluo-8 calcium fluorescence detection method
Experimental principle: HDB Fluo-8 calcium ion fluorescence detection method is a fast, simple and reliable fluorescence detection method of intracellular calcium concentration changes. The Fluo 8-AM fluorescent dye is an acetyl methyl ester derivative of Fluo 8 which can easily penetrate into the cell membrane by culture. The fluorescent dye in the cell will be hydrolyzed by intracellular esterase, the resulting Fluo 8 as a polar molecule, cannot easily pass through the lipid bimolecular membrane, and will be retained in the cell, and combine with calcium (Ca^2+) to produce fluoresces.
Cells expressing GPCR receptor protein (mGluR2) were first calibrated with a calcium ion sensitive fluorescent probe and then stimulated with the compound. After stimulation, the receptor activates the calcium ion mobilization, and the fluorescent probe captures the calcium ion to induce the fluorescence signal. The signal can be read by a fluoroscopy plate. The fluorescent plate reader contains a sample addition for compound addition, thus enabling the change of the fluorescence value of the compound be read in real time.

hERG potassium channel = hERG potassium channel (Homo sapiens (Human), UniProt Q12809); test: hERG potassium channel toxicity assay (hERG patch clamp); type: cell-based; details: for IC50: hERG patch clamp; for inhibition at 40 µM: human, hERG, at maximum concentration 40 μM, read-out: Inhibition rate (%)
Procedure: Experimental method: hERG patch clamp detection method
Experimental procedure: Compound preparation: the stock solution of a compound was diluted with extracellular fluid, 2 μL of the compound stock solution was added to 998 μL extracellular fluid, and then serially diluted 5 times in an extracellular fluid containing 0.2% DMSO to obtain the final concentration to be tested.

C57BL/6 mice = test: Mouse open field experiment; type: in vivo; details: for Central area dwell time (s) Mean ± SEM / Central area traveling distance percentage (%) Mean ± SEM / Total moving distance (cm) Mean ± SEM: 30 mg/kg i.p., 1 hour before, 30-minute test
Procedure: Experiment objectives: to observe the anti-anxiety effect of the test compound on the mice by open field experiment.
Experimental animals: male C57BL/6 mice, 10 weeks old, purchased from Beijing Huafukang Biotechnology Co., Ltd.
Animal rearing: The temperature in the animal room was maintained at 20-25° C., the humidity was maintained at 40-70%, and the photoperiod was 12 hours light and 12 hours dark. During feeding, the mice were housed in standard mouse cages, with colored labels on each cage clearly indicating the item number, and the basic information such as the responsible person, group, animal number and animal gender. All animals were given free access to pure water and standard certified rodent feed. Before the start of the experiment, the experimental animals were adapted to the feeding environment for at least one week.
The compound to be tested, intraperitoneally administered, 30 mg/kg.
Experimental principle: Based on the instincts of rodents tending to avoid light and fear of exploring open fields. When the experimental animals were first placed in the open field, the central area was a potential threat to the animals, while the peripheral area was relatively safe, and rats and mice were more likely to move along the perimeter of the field. Therefore, if the animal is of high anxiety level, it tends to stay in the peripheral area. Conversely, the number and time of exploration in the central area will increase.
Experimental grouping and administration: Experimental animals were randomly divided into 5 groups as follows:
During the 30-minute test period, the total distance traveled by the experimental animals, the central area dwell time, and the percentage of the central area travel distance will be detected and recorded.

[1] = positive control, 10 mg/kg, intraperitoneal, 0.5 hours before test
[2] = 5 mg/kg, orally, 1 hour before test
[3] = 10 mg/kg, orally, 1 hour before test
[4] = 20 mg/kg, orally, 1 hour before test

mGluR2, sequence (Q14416 19-872): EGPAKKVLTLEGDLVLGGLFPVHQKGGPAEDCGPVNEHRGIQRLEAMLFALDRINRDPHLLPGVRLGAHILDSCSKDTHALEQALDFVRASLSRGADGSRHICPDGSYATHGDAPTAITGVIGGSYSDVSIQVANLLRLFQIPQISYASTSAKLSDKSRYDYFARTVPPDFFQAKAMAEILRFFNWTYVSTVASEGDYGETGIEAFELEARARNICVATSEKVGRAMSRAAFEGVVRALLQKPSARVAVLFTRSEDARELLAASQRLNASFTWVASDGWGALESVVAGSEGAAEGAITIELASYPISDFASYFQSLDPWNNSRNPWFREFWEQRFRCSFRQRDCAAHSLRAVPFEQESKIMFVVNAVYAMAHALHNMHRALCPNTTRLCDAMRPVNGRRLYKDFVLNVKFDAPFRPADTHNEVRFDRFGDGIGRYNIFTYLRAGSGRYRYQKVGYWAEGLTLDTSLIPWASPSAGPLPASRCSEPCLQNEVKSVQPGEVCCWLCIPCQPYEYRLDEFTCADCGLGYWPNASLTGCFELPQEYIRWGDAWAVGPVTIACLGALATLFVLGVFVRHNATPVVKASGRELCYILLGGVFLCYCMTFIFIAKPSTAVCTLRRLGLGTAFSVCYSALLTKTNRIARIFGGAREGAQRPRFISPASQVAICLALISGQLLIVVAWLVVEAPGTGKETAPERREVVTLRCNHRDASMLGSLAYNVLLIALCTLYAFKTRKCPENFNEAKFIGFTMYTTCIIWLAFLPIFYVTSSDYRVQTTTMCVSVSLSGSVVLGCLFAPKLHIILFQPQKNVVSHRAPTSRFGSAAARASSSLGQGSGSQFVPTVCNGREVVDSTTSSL
hERG potassium channel, sequence (Q12809 whole entry): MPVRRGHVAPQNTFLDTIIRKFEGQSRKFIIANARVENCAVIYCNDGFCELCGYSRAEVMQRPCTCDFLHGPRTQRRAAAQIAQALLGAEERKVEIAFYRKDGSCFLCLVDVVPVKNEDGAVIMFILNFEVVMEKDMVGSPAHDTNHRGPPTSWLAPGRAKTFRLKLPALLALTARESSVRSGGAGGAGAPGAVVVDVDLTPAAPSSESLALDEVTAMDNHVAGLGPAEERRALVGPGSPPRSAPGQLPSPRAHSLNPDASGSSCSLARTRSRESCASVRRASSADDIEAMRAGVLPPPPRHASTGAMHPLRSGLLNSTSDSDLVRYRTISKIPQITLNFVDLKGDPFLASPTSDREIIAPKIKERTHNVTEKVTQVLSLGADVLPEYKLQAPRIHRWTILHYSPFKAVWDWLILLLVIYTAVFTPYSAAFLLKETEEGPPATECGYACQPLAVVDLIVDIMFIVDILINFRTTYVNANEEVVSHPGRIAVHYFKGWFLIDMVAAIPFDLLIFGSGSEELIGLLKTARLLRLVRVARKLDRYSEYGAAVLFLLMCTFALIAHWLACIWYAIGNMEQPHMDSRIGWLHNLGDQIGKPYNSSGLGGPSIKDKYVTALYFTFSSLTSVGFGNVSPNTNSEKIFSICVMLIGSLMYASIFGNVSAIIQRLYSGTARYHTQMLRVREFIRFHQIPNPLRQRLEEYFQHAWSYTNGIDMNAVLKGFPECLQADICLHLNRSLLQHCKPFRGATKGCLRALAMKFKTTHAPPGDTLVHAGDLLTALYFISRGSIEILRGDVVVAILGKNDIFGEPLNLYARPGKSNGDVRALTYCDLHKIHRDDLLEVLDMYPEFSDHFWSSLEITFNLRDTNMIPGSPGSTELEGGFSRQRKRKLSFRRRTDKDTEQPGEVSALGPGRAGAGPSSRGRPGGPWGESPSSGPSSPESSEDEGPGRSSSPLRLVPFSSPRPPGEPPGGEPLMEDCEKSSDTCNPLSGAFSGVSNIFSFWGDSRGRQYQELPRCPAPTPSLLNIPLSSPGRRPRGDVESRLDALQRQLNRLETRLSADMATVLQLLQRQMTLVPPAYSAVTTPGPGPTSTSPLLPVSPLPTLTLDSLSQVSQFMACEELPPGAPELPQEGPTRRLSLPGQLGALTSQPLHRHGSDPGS

CN(C)CCC=C1c2ccccc2CCc2ccccc21 [Amitriptyline, reference compound]
"no movement time" of swimming in mice (in words) (ICR mice; mouse, in vivo): significantly improved
non-movement time (%) Mean ± SEM (ICR mice; [1]): 5.32 ± 2.08 %

FC1(F)CC1Cc1nnc2cc(-c3ccc4c(c3)OCO4)ccn12 (stereo not drawn) [Compound 35, 7-(Benzo[d][1,3]dioxol-5-yl)-3-((2,2-difluorocyclopropyl)methyl)-[1,2,4]triazole [4,3-a]pyridine]
EC50 (mGluR2): 108 nM
IC50 (hERG potassium channel): > 40000 nM
inhibition at 40 µM (hERG potassium channel): 40%
Central area dwell time (s) Mean ± SEM (C57BL/6 mice): 102.6 ± 20.8 s
Central area traveling distance percentage (%) Mean ± SEM (C57BL/6 mice): 15.41 ± 1.99%
Total moving distance (cm) Mean ± SEM (C57BL/6 mice): 3491.2 ± 650.6 cm

Fc1cccc(-c2ccn3c(CC4CC4(F)F)nnc3c2Cl)c1 (stereo not drawn) [Compound 37, 8-chloro-3-((2,2-difluorocyclopropyl)methyl)-7-(3-fluorophenyl)-[1,2,4] triazole[4,3-a]pyridine]
EC50 (mGluR2): 190 nM
IC50 (hERG potassium channel): 15000 nM
inhibition at 40 µM (hERG potassium channel): 57%

Cc1cc(F)ccc1-c1ccn2c(CC3CC3(F)F)nnc2c1Cl (stereo not drawn) [Compound 41, 8-chloro-3-((2,2-difluorocyclopropyl)methyl)-7-(4-fluoro-2-methylphenyl)-[1,2,4]triazole[4,3-a]pyridine]
EC50 (mGluR2): 856 nM
IC50 (hERG potassium channel): 11200 nM
inhibition at 40 µM (hERG potassium channel): 80.1%

COc1ccc(-c2ccn3c(CC4CC4(F)F)nnc3c2Cl)cc1F (stereo not drawn) [Compound 44, 8-chloro-3-((2,2-difluorocyclopropyl)methyl)-7-(3-fluoro-4-methoxyphenyl)-[1,2,4]triazole[4,3-a]pyridine]
EC50 (mGluR2): 118 nM
IC50 (hERG potassium channel): 16100 nM
inhibition at 40 µM (hERG potassium channel): 64.5%

COC(=O)c1ccc(-c2ccn3c(CC4CC4(F)F)nnc3c2Cl)c(F)c1 (stereo not drawn) [Compound 45, Methyl 4-(8-Chloro-3-((2,2-difluorocyclopropyl)methyl)-[1,2,4]triazole[4,3-a]pyridin-7-yl)-3-fluorobenzoate]
non-movement time (%) Mean ± SEM (ICR mice; [2]): 63.99 ± 11.00%
non-movement time (%) Mean ± SEM (ICR mice; [3]): 34.88 ± 6.57%
non-movement time (%) Mean ± SEM (ICR mice; [4]): 56.29 ± 17.56%
"no movement time" of swimming in mice (in words) (ICR mice; mouse, in vivo): effectively shorten
antidepressant effect (ICR mice; mouse, in vivo): significant antidepressant effect
EC50 (mGluR2): 87.9 nM
Central area dwell time (s) Mean ± SEM (C57BL/6 mice): 110 ± 13.0 s
Central area traveling distance percentage (%) Mean ± SEM (C57BL/6 mice): 19.39 ± 1.63 %
Total moving distance (cm) Mean ± SEM (C57BL/6 mice): 5043.2 ± 457.5 cm
central region's range of motion (C57BL/6 mice; dosage of 30 mg/kg): significantly increase

COC(=O)c1ccc(-c2ccn3c(CC4CC4(F)F)nnc3c2Cl)c(Cl)c1 (stereo not drawn) [Compound 46, Methyl 3-Chloro-4-(8-chloro-3-((2,2-difluorocyclopropyl)methyl)-[1,2,4]triazole[4,3-a]pyridine-7-yl)benzoate]
EC50 (mGluR2): 230 nM
IC50 (hERG potassium channel): 10800 nM
inhibition at 40 µM (hERG potassium channel): 82.5%

FC1(F)CC1Cc1nnc2c(Cl)c(-c3ccc4c(c3)CCO4)ccn12 (stereo not drawn) [Compound 47, 8-chloro-3-((2,2-difluorocyclopropyl)methyl)-7-(2,3-benzodihydrofuran-5-yl)-[1,2,4]triazole[4,3-a]pyridine]
EC50 (mGluR2): 215 nM
IC50 (hERG potassium channel): 4880 nM
inhibition at 40 µM (hERG potassium channel): 96.4%

FC1(F)CC1Cc1nnc2c(Cl)c(-c3ccc4c(c3)OCO4)ccn12 (stereo not drawn) [Compound 50, 7-(Benzo[d][1,3]dioxol-5-yl)-8-chloro-3-((2,2-difluorocyclopropyl)methyl)-[1,2,4]triazole [4,3-a]pyridine]
non-movement time (%) Mean ± SEM (ICR mice; [2]): 84.06 ± 10.65%
non-movement time (%) Mean ± SEM (ICR mice; [3]): 52.10 ± 15.86%
non-movement time (%) Mean ± SEM (ICR mice; [4]): 57.08 ± 17.80%
EC50 (mGluR2): 62.3 nM
Central area dwell time (s) Mean ± SEM (C57BL/6 mice): 81.1 ± 10.2 s
Central area traveling distance percentage (%) Mean ± SEM (C57BL/6 mice): 13.91 ± 0.96%
Total moving distance (cm) Mean ± SEM (C57BL/6 mice): 4407.2 ± 390.5 cm

CN1C(=O)CN=C(c2ccccc2)c2cc(Cl)ccc21 [Diazepam, reference compound]
anti-anxiety effect in the open field experiment (C57BL/6 mice; mouse, in vivo): very significant anti-anxiety effect

CNCCC(Oc1ccc(C(F)(F)F)cc1)c1ccccc1 (stereo not drawn) [Fluoxetine, reference compound]
non-movement time (%) Mean ± SEM (ICR mice; [1]): 33.98 ± 9.84 %
